The values that follow come from US20230031406A1, “COMPOUNDS AND COMPOSITIONS FOR TREATING CONDITIONS ASSOCIATED WITH NLRP ACTIVITY” (Novartis AG, priority 2018, published 2023).

SMILES strings stand for the structures.

The subject of the first assay is PMA-differentiated THP-1 cells. Briefly: IL-1β production in PMA-differentiated THP-1 cells stimulated with gramicidin (hTHP-1 assay containing 2% fetal bovine serum; Procedures 1 and 2). The class given is cell-based, human. The note with it: Homo sapiens, THP-1, Table B1; 2% fetal bovine serum; class symbols; read-out: Average IC50 of compounds in hTHP-1 assay: hTHP-1 IC50. The procedure, abridged: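 Compound titrations in 0.37% final DMSO were added to THP-1 cells that had been plated after 16-18 h PMA treatment, 50,000 per well in 2% FBS. One hour later the cells received gramicidin (5 μM, 2 h) and were centrifuged. HTRF detected IL-1β in the collected supernatants.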
What is called IC50 is the concentration that inhibits the measured activity by half. In the case of `CC1CCc2c1nc1c(c2NC(=O)N=S(N)(=O)c2ncc(C(C)(C)O)s2)CCC1` (single isomer, unassigned) [Compound 140aa, (R,R) or (R,S)-5-(2-hydroxypropan-2-yl)-N′-((3-methyl-1,2,3,5,6,7-hexa-hydrodicyclo-penta[b,e]pyridin-8-yl)carbamoyl)thiazole-2-sulfonimidamide], the IC50 was 40 to 200 nM. Turning to `CC(C)(O)c1cc(F)c(S(N)(=O)=NC(=O)Nc2c3c(nc4c2CCC4)CCC3)s1` (stereo not drawn) [Compound 105, 3-fluoro-N′-((1,2,3,5,6,7-hexahydrodicyclopenta[b,e]pyridin-8-yl)carbamoyl)-5-(2-hydroxypropan-2-yl)thiophene-2-sulfonimidamide], the IC50 fell in the range of 40 to 200 nM.

The same assay, now with this note: Homo sapiens, THP-1, Table B1; 2% fetal bovine serum; numeric bounds; read-out: Average IC50 of compounds in hTHP-1 assay: hTHP-1 IC50.
In the case of `CC(C)(O)c1ncc(S(N)(=O)=NC(=O)Nc2c3c(nc4c2CCC4F)CCC3)s1` (single isomer, unassigned) [Compound 183b, (S,S) or (S,R)-N′-((3-fluoro-1,2,3,5,6,7-hexahydrodicyclo-penta[b,e]pyridin-8-yl)carbamoyl)-2-(2-hydroxypropan-2-yl)thiazole-5-sulfonimidamide], the half-maximal inhibitory concentration (IC50) is above 30000 nM. For the compound `CC(C)(O)c1ccc(S(N)(=O)=NC(=O)Nc2c3c(nc4c2CCC4)CCC3)s1` (single isomer, unassigned) [Compound 149b, (S) or (R)-N′-((1,2,3,5,6,7-hexahydrodicyclo-penta[b,e]pyridin-8-yl)carbamoyl)-5-(2-hydroxypropan-2-yl)thiophene-2-sulfonimidamide], the IC50 is above 30000 nM.

The same assay, now with this note: Homo sapiens, THP-1, Table B2; 2% fetal bovine serum; class symbols; read-out: hTHP-1 IC50.
`Cc1c(C(F)(F)F)nc2c(c1NC(=O)N=[S@@](N)(=O)c1cnc(C(C)(C)O)s1)CCC2C` (stereo partly drawn) [Compound 608d]: the half-maximal inhibitory concentration (IC50) was in the range of 1000 to 5000 nM. Regarding `Cc1nc2c(c(NC(=O)N=S(N)(=O)c3ncc(C(C)(C)O)s3)c1C1CC1)CCC2` (single isomer, unassigned) [Compound 618b, (R) or (S)-N′-((3-cyclopropyl-2-methyl-6,7-dihydro-5H-cyclopenta[b]pyridin-4-yl)carbamoyl)-5-(2-hydroxypropan-2-yl)thiazole-2-sulfonimidamide], the IC50 lay in the range of 200 to 1000 nM. Regarding `CCC1CCc2c1nc1c(c2NC(=O)N=S(N)(=O)c2ccn(C(F)F)n2)CCC1` (single isomer, unassigned) [Compound 668b, (R, R) or (R, S) or (S, R) or (S, S)-1-(Difluoromethyl)-N′-((3-ethyl-1,2,3,5,6,7-hexahydrodicyclopenta [b,e]pyridin-8-yl)carbamoyl)-1H-pyrazole-3-sulfonimidamide], the concentration for half-maximal inhibition (IC50) lay within 5000 to 30000 nM. As to `CC(C)(O)c1cnc(S(N)(=O)=NC(=O)Nc2c3c(nc4c2CCC42CC2)CCC3)s1` (stereo not drawn) [Compound 683, 5-(2-Hydroxypropan-2-yl)-N′-((1′,5′,6′,7′-tetrahydro-2′H-spiro[cyclopropane-1,3′-dicyclopenta[b,e]pyridin]-8′-yl)carbamoyl)thiazole-2-sulfonimidamide], the IC50 lay within 1000 to 5000 nM. `CC(C)c1nc2c(cc1NC(=O)N=[S@](N)(=O)c1cnc(C(C)(C)O)s1)CCC2` [Compound 601a]: the IC50 lay in the range of 200 to 1000 nM.

Still in this assay, the particulars now being: Homo sapiens, THP-1, Table B2; 2% fetal bovine serum; numeric bounds; read-out: hTHP-1 IC50.
Turning to `Cc1c(C2CCC2)nc2c(c1NC(=O)N=S(N)(=O)c1cnc(C(C)(C)O)s1)CCC2` (single isomer, unassigned) [Compound 649b, (S) or (R)-N′-((2-cyclobutyl-3-methyl-6,7-dihydro-5H-cyclopenta[b]pyridin-4-yl)carbamoyl)-2-(2-hydroxypropan-2-yl)thiazole-5-sulfonimidamide], the IC50 is above 30000 nM.

The same assay, now with this note: Homo sapiens, THP-1, Table B3; hTHP-1 assay, 2% fetal bovine serum; class symbols; read-out: IC50.
As to `CC1(C)CCc2c1nc1c(c2NC(=O)N=S(N)(=O)c2nn(C(F)F)cc2F)CCC1` (stereo not drawn) [Example 621, 1-(Difluoromethyl)-N′-((3,3-dimethyl-1,2,3,5,6,7-hexahydrodicyclopenta[b,e]pyridin-8-yl)carbamoyl)-4-fluoro-1H-pyrazole-3-sulfonimidamide], the half-maximal inhibitory concentration (IC50) was 40 to 200 nM. `Cc1c(C(F)(F)F)nc2c(c1NC(=O)N=S(N)(=O)c1cc(CO)n(C(C)C)n1)CCC2` (stereo not drawn) [Example 585, 5-(Hydroxymethyl)-1-isopropyl-N′-((3-methyl-2-(trifluoromethyl)-6,7-dihydro-5H-cyclopenta[b]pyridin-4-yl)carbamoyl)-1H-pyrazole-3-sulfonimidamide]: the IC50 was 1000 to 5000 nM.

With `CC(C)n1nc(S(N)(=O)=NC(=O)Nc2c3c(nc4c2CC[C@H]4C)CCC3)cc1CO` (single isomer, unassigned) [Example 643, (R) or (S)-5-(hydroxymethyl)-1-isopropyl-N′-(((R)-3-methyl-1,2,3,5,6,7-hexahydrodicyclopenta[b,e]pyridin-8-yl)carbamoyl)-1H-pyrazole-3-sulfonimidamide], the IC50 fell in the range of 1000 to 5000 nM. Still for that read-out and setting: to `Cc1nc2c(c(NC(=O)N=S(N)(=O)c3sc(C(O)(CO)CO)nc3CO)c1C(F)(F)F)CCC2` (stereo not drawn) [Example 587, 4-(Hydroxymethyl)-N′-((2-methyl-3-(trifluoromethyl)-6,7-dihydro-5H-cyclopenta[b]pyridin-4-yl)calbamoyl)-2-(1,2,3-trihydroxypropan-2-yl)thiazole-5-sulfonimidamide] belongs 5000 to 30000 nM.

Still in this assay, the particulars now being: Table B1; 2% fetal bovine serum; class symbols; read-out: Average IC50 of compounds in hTHP-1 assay: hTHP-1 IC50.
As to `CC1CCc2c1nc1c(c2NC(=O)N=S(N)(=O)c2cc(C(C)(C)O)cs2)CCC1` (single isomer, unassigned) [Compound 141a, (S,R/S) or (R,R/S)-4-(2-hydroxypropan-2-yl)-N′-((3-methyl-1,2,3,5,6,7-hexahydro-dicyclopenta[b,e]pyridin-8-yl)carbamoyl)thiophene-2-sulfonimidamide], the IC50 is 1000 to 5000 nM. On the same count and under the same terms, for `CC1CCc2c1nc1c(c2NC(=O)N=S(N)(=O)c2cc(C(C)(C)O)cs2)CCC1C` [Compound 131b, (S) and (S,R,R) and (S,S,S)-N′-((3,5-dimethyl-1,2,3,5,6,7-hexahydro-dicyclopenta[b,e]py-ridin-8-yl)carbamoyl)-4-(2-hydroxypropan-2-yl)thiophene-2-sulfonimidamide] the value was 5000 to 30000 nM.

The same assay, now with this note: Table B2; 2% fetal bovine serum; class symbols; read-out: hTHP-1 IC50.
For `CCn1ccc(S(N)(=O)=NC(=O)Nc2c3c(nc4c2CC[C@H]4C)CCC3)n1` (single isomer, unassigned) [Compound 634b, (R) or (S)-1-Ethyl-N′-(((R)-3-methyl-1,2,3,5,6,7-hexahydrodicyclopenta [b,e]pyridin-8-yl)carbamoyl)-1H-pyrazole-3-sulfonimidamide], the IC50 was 40 to 200 nM.

For `CC1(C)CCc2c1nc1c(c2NC(=O)N=S(N)(=O)c2cnc(C(C)(O)CO)s2)CCC1` (stereo not drawn) [Compound 201, 2-(1,2-Dihydroxypropan-2-yl)-N′-((3,3-dimethyl-1,2,3,5,6,7-hexahydrodicyclopenta [b,e]pyridin-8-yl)carbamoyl)thiazole-5-sulfonimidamide], the IC50 lay within 200 to 1000 nM. On to `CC1(C)CCc2c1nc1c(c2NC(=O)N=S(N)(=O)c2sc(C(C)(O)CO)cc2F)CCC1` (single isomer, unassigned) [Compound 640a, (R, R) and (S, R) or (R, S) and (S, S)-5-(1,2-Dihydroxypropan-2-yl)-N′-((3,3-dimethyl-1,2,3,5,6,7-hexahydrodicyclopenta [b,e]pyridin-8-yl)carbamoyl)-3-fluorotliophene-2-sulfonimidamide], for which the IC50 was 8 to 40 nM. Still for that read-out and setting: to `CCC1CCc2c1nc1c(c2NC(=O)N=S(N)(=O)c2sc(C(C)(C)O)cc2F)CCC1` (stereo not drawn) [Compound 671, N′-((3-ethyl-1,2,3,5,6,7-hexahydrodicyclopenta[b,e]pyridin-8-yl)carbamoyl)-3-fluoro-5-(2-hydroxypropan-2-yl)thiophene-2-sulfonimidamide] belongs 1000 to 5000 nM; to `CCC1CCc2c1nc1c(c2NC(=O)N=S(N)(=O)c2sc(C(C)(C)O)cc2F)CCC1` (single isomer, unassigned) [Compound 671c, (R, S) or (R, R) or (S, R) or (S, S)-N′-((3-ethyl-1,2,3,5,6,7-hexahydrodicyclopenta [b,e]pyridin-8-yl)carbamoyl)-3-fluoro-5-(2-hydroxypropan-2-yl) thiophene-2-sulfonimidamide], 1000 to 5000 nM; to `Cc1c(C(F)(F)F)nc2c(c1NC(=O)N=S(N)(=O)c1sc(C(C)(C)O)cc1F)CCC2` (single isomer, unassigned) [Compound 632b, (S) or (R)-3-Fluoro-5-(2-hydroxypropan-2-yl)-N′-((3-methyl-2-(trifluoromethyl)-6,7-dihydro-5H-cyclopenta[b]pyridin-4-yl)carbamoyl) thiophene-2-sulfonimidamide], 5000 to 30000 nM.

The same assay, now with this note: Table B3; hTHP-1 assay, 2% fetal bovine serum; class symbols; read-out: IC50.
Regarding `Cc1c(C(F)(F)F)nc2c(c1NC(=O)N=S(N)(=O)c1cnc(C(C)(C)O)s1)CCC2C` (single isomer, unassigned) [Example 703, (R/S, S) or (R/S, R)-N′-((3,7-dimethyl-2-(trifluoromethyl)-6,7-dihydro-5H-cyclopenta[b]pyridin-4-yl)carbamoyl)-2-(2-hydroxypropan-2-yl)thiazole-5-sulfonimidamide], the IC50 fell in the range of 1000 to 5000 nM.

In the case of `CCn1cc(F)c(S(N)(=O)=NC(=O)Nc2c3c(nc(C4CC4)c2C2CC2)CCC3)n1` (single isomer, unassigned) [Example 708, (S) or (R)-N′-((2,3-dicyclopropyl-6,7-dihydro-5H-cyclopenta[b]pyridin-4-yl)carbamoyl)-1-ethyl-4-fluoro-1H-pyrazole-3-sulfonimidamide], the IC50 is 5000 to 30000 nM.
